According to US10206937B2, “Boronic acid derivatives and therapeutic uses thereof” (Qpex Biopharma, Inc., priority 2014, dated 2019):

Key:
VIM-1 = molecular target: T1, VIM-1 (Pseudomonas aeruginosa, UniProt A0A0F7KYQ8); test: biochemical; settings: cleavage of nitrocefin (200 uM) by VIM-1 supernatant
T1 construct: made in house; host or cells: ECM6711 strain carrying pUCP24-VIM-1 plasmid; culture supernatant used unpurified

[1] = molecular target: purified class A, C and D enzymes (Enterobacter cloacae, UniProt P05364); format: biochemical; settings: purified P99/AmpC of ECL; nitrocefin reporter substrate
[2] = molecular target: T2, purified class A, C and D enzymes (UniProt Q9F663); format: biochemical; settings: read-out: Ki (KPC-2, NCF); purified KPC-2; nitrocefin reporter substrate
T2 construct: rows headed: Ki (KPC-2, NCF); other: purified KPC-2; nitrocefin reporter substrate

[3] = molecular target: T3, purified class A, C and D enzymes (UniProt Q6XEC0); format: biochemical; settings: read-out: Ki (OXA-48, NCF); purified OXA-48; nitrocefin reporter substrate
T3 construct: rows headed: Ki (OXA-48, NCF); other: purified OXA-48; nitrocefin reporter substrate

[4] = molecular target: purified class A, C and D enzymes (Escherichia coli, UniProt Q9L5C7); format: biochemical; settings: purified CTX-M-14; nitrocefin reporter substrate
[5] = molecular target: T4, purified class A, C and D enzymes (UniProt P0AD64, L31Q/G234S/E235K, species not given); format: biochemical; settings: read-out: Ki (SHV-12, NCF); purified SHV-12; nitrocefin reporter substrate
T4 construct: Ki (SHV-12, NCF); other: purified SHV-12; nitrocefin reporter substrate
T4 sequence (P0AD64 1-286 L31Q/G234S/E235K): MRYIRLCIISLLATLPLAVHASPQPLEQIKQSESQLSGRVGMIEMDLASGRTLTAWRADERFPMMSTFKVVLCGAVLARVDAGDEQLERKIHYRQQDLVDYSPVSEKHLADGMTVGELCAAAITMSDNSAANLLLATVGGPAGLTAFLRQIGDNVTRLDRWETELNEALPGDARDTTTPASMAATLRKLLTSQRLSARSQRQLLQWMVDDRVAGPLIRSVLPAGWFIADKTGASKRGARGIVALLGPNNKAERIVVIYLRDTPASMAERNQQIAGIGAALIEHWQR

NDM-1 [6] = molecular target: T5, NDM-1 (Klebsiella pneumoniae, UniProt C7C422); test: biochemical; settings: cleavage of imipenem (100 uM) by NDM-1; read-out: Ki, Imipenem
NDM-1 [7] = molecular target: T5, NDM-1; test: Inhibition of purified class B carbapenemase NDM-1 (Ki, imipenem substrate); format: biochemical; settings: NDM-1, substrate imipenem; read-out: Ki NDM-1, Imipenem

purified class A, C and D enzymes (Enterobacter cloacae, UniProt P05364), sequence (P05364 21-381): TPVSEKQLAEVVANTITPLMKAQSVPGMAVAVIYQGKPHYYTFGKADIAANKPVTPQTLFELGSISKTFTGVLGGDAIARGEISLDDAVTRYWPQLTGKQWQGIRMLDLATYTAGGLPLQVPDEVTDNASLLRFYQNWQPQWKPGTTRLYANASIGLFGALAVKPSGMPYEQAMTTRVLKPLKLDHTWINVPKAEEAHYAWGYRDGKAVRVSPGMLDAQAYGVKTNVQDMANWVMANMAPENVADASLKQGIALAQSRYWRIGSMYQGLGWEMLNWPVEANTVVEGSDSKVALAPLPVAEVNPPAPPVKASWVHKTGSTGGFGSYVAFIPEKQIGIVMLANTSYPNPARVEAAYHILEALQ
purified class A, C and D enzymes (Escherichia coli, UniProt Q9L5C7), sequence (Q9L5C7 entry or part of it): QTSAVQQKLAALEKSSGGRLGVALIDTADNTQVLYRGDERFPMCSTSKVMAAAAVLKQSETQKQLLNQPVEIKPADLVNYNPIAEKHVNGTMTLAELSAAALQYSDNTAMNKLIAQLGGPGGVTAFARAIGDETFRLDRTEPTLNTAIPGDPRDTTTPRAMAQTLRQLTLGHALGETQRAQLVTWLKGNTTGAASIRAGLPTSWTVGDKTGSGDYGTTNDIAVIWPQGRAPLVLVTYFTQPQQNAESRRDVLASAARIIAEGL
T5 sequence (C7C422 29-270, looked up, species assumed): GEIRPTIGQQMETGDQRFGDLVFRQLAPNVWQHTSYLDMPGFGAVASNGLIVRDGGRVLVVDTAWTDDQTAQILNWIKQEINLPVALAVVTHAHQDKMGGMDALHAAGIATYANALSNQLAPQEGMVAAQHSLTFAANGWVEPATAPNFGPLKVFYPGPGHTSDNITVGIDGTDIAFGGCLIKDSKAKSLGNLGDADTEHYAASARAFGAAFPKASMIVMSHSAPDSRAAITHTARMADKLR

SMILES	IC50 (VIM-1)	Ki (P99/AmpC of ECL, NCF) [1]	Ki [2]	Ki [3]	Ki (CTX-M-14, NCF) [4]	Ki [5]	Ki (NDM-1 [6])	Ki (NDM-1 [7])
CSc1ccc2c(c1C(=O)O)OB(O)[C@@H](Sc1nncn1C)C2 [Compound 29, (R)-2-hydroxy-3-(4-methyl-4H-1,2,4-triazol-3-ylthio)-7-(methylthio)-3,4-dihydro-2H-benzo[e][1,2]oxaborinine-8-carboxylic acid]	< 1000 nM	Y (0.1 μM to 1 μM)	100 to 1000 nM	< 100 nM	X (Less than 0.1 μM)	< 100 nM	10 to 100 nM	10 to 100 nM
Cc1ccc2c(c1C(=O)O)OB(O)[C@@H](Sc1nnc(N)s1)C2 [Compound 31, (R)-3-(5-amino-1,3,4-thiadiazol-2-ylthio)-2-hydroxy-7-methyl-3,4-dihydro-2H-benzo[e][1,2]oxaborinine-8-carboxylic acid]	≥ 1000 nM	Y (0.1 μM to 1 μM)	100 to 1000 nM	< 100 nM	X (Less than 0.1 μM)	< 100 nM	> 100 nM	> 100 nM
COc1cc(OC)c(C(=O)O)c2c1C[C@H](Sc1nnc(N)s1)B(O)O2 [Compound 32, (R)-3-(5-amino-1,3,4-thiadiazol-2-ylthio)-2-hydroxy-5,7-dimethoxy-3,4-dihydro-2H-benzo[e][1,2]oxaborinine-8-carboxylic acid]	≥ 1000 nM	X (Less than 0.1 μM)	< 100 nM	< 100 nM	X (Less than 0.1 μM)	< 100 nM	10 to 100 nM	10 to 100 nM
Nc1nnc(S[C@H]2Cc3c(F)cc(F)c(C(=O)O)c3OB2O)s1 [Compound 33, (R)-3-(5-amino-1,3,4-thiadiazol-2-ylthio)-5,7-difluoro-2-hydroxy-3,4-dihydro-2H-benzo[e][1,2]oxaborinine-8-carboxylic acid]	≥ 1000 nM	X (Less than 0.1 μM)	100 to 1000 nM	< 100 nM	X (Less than 0.1 μM)	< 100 nM	> 100 nM	10 to 100 nM
C[S+]([O-])c1ccc2c(c1C(=O)O)OB(O)[C@@H](Sc1nnc(N)s1)C2 (stereo partly drawn) [Compound 34, (3R)-3-(5-amino-1,3,4-thiadiazol-2-ylthio)-2-hydroxy-7-(methylsulfinyl)-3,4-dihydro-2H-benzo[e][1,2]oxaborinine-8-carboxylic acid]	< 1000 nM	X (Less than 0.1 μM)	100 to 1000 nM	< 100 nM	X (Less than 0.1 μM)	< 100 nM	10 to 100 nM	10 to 100 nM
COCc1ccc2c(c1C(=O)O)OB(O)[C@@H](Sc1nnc(N)s1)C2 [Compound 35, (R)-3-(5-amino-1,3,4-thiadiazol-2-ylthio)-2-hydroxy-7-(methoxymethyl)-3,4-dihydro-2H-benzo[e][1,2]oxaborinine-8-carboxylic acid]	< 1000 nM	Y (0.1 μM to 1 μM)	< 100 nM	< 100 nM	X (Less than 0.1 μM)	< 100 nM	10 to 100 nM	10 to 100 nM
Nc1nnc(S[C@H]2Cc3ccc(Cl)c(C(=O)O)c3OB2O)s1 [Compound 36, (R)-3-(5-amino-1,3,4-thiadiazol-2-ylthio)-7-chloro-2-hydroxy-3,4-dihydro-2H-benzo[e][1,2]oxaborinine-8-carboxylic acid]	≥ 1000 nM	Z (Greater than 1 μM)	< 100 nM	< 100 nM	X (Less than 0.1 μM)	< 100 nM	10 to 100 nM	10 to 100 nM
Nc1nnc(S[C@H]2Cc3cc(F)c(F)c(C(=O)O)c3OB2O)s1 [Compound 37, (R)-3-(5-amino-1,3,4-thiadiazol-2-ylthio)-6,7-difluoro-2-hydroxy-3,4-dihydro-2H-benzo[e][1,2]oxaborinine-8-carboxylic acid]	≥ 1000 nM	Z (Greater than 1 μM)	< 100 nM	< 100 nM	X (Less than 0.1 μM)	< 100 nM	10 to 100 nM	10 to 100 nM
Nc1nnc(S[C@H]2Cc3c(F)c(F)c(F)c(C(=O)O)c3OB2O)s1 [Compound 38, (R)-3-(5-amino-1,3,4-thiadiazol-2-ylthio)-5,6,7-trifluoro-2-hydroxy-3,4-dihydro-2H-benzo[e][1,2]oxaborinine-8-carboxylic acid]	≥ 1000 nM	Y (0.1 μM to 1 μM)	> 1000 nM	< 100 nM	X (Less than 0.1 μM)	< 100 nM	> 100 nM	> 100 nM
COc1ccc2c(c1C(=O)O)OB(O)[C@@H](Sc1c[nH]nn1)C2 [Compound 39, (R)-3-(1H-1,2,3-triazol-4-ylthio)-2-hydroxy-7-methoxy-3,4-dihydro-2H-benzo[e][1,2]oxaborinine-8-carboxylic acid]	< 1000 nM	Y (0.1 μM to 1 μM)	< 100 nM	< 100 nM	X (Less than 0.1 μM)	< 100 nM	> 100 nM	> 100 nM
COc1ccc2c(c1C(=O)O)OB(O)[C@@H](Sc1ncn(CCCC(=O)O)n1)C2 [Compound 40, (R)-3-(1-(3-carboxypropyl)-1H-1,2,4-triazol-3-ylthio)-2-hydroxy-7-methoxy-3,4-dihydro-2H-benzo[e][1,2]oxaborinine-8-carboxylic acid]	≥ 1000 nM	X (Less than 0.1 μM)	< 100 nM	< 100 nM	X (Less than 0.1 μM)	< 100 nM	> 100 nM	> 100 nM
COc1ccc2c(c1C(=O)O)OB(O)[C@@H](Sc1nncn1CCCC(=O)O)C2 [Compound 41, (R)-3-(4-(3-carboxypropyl)-4H-1,2,4-triazol-3-ylthio)-2-hydroxy-7-methoxy-3,4-dihydro-2H-benzo[e][1,2]oxaborinine-8-carboxylic acid]	< 1000 nM	X (Less than 0.1 μM)	< 100 nM	< 100 nM	X (Less than 0.1 μM)	< 100 nM	< 10 nM	< 10 nM
COc1c(Cl)cc2c(c1C(=O)O)OB(O)[C@@H](Sc1nnc(N)s1)C2 [Compound 42, (R)-3-(5-amino-1,3,4-thiadiazol-2-ylthio)-6-chloro-2-hydroxy-7-methoxy-3,4-dihydro-2H-benzo[e][1,2]oxaborinine-8-carboxylic acid]	< 1000 nM	Y (0.1 μM to 1 μM)	100 to 1000 nM	< 100 nM	X (Less than 0.1 μM)	< 100 nM	< 10 nM	< 10 nM
COc1ccc2c(c1C(=O)O)OB(O)[C@@H](SCCc1nnc(N)s1)C2 [Compound 43, (R)-3-(2-(5-amino-1,3,4-thiadiazol-2-yl)ethylthio)-2-hydroxy-7-methoxy-3,4-dihydro-2H-benzo[e][1,2]oxaborinine-8-carboxylic acid]	< 1000 nM	X (Less than 0.1 μM)	< 100 nM	< 100 nM	X (Less than 0.1 μM)	< 100 nM	< 10 nM	< 10 nM
Nc1nnc(S[C@H]2Cc3ccc(O)c(C(=O)O)c3OB2O)s1 [Compound 44, (R)-3-(5-amino-1,3,4-thiadiazol-2-ylthio)-2,7-dihydroxy-3,4-dihydro-2H-benzo[e][1,2]oxaborinine-8-carboxylic acid]	< 1000 nM	X (Less than 0.1 μM)	< 100 nM	< 100 nM	X (Less than 0.1 μM)	< 100 nM	< 10 nM	< 10 nM
O=C(O)c1c(F)ccc2c1OB(O)[C@@H](Sc1nccs1)C2 [Compound 45, (R)-7-fluoro-2-hydroxy-3-(thiazol-2-ylthio)-3,4-dihydro-2H-benzo[e][1,2]oxaborinine-8-carboxylic acid]	≥ 1000 nM	Z (Greater than 1 μM)	100 to 1000 nM	< 100 nM	X (Less than 0.1 μM)	< 100 nM	10 to 100 nM	10 to 100 nM
